Entries after “also recorded” stand apart in the source; their conditions may differ. Like-named read-outs stand apart in the source and are kept apart here.
What was measured:
[1] = levetiracetam blood plasma levels in aged-impaired rats; assay type: in vivo; details: rat
Description: Rats: Blood is drawn from aged-impaired rats by cardiac puncture during perfusion after a 28-day levetiracetam treatment period and is sent for analysis of levetiracetam plasma levels by MedTox Laboratories in St. Paul, Minn.
The levetiracetam blood levels in the aged-impaired rats treated with daily levetiracetam doses of 10 mg/kg and 60 mg/kg can be use to estimate the levetiracetam blood level of its daily dose of 20 mg/kg. This extrapolation gives an estimated levetiracetam blood level of 7.6 mcg/ml for the 20 mg/kg daily dose.

aMCI subjects [2] = assay: neuropsychological tests outside the scanner (Buschke, Benton, Verbal Paired Associates); assay type: in vivo, human; details: 125 mg twice a day for two weeks
Text: All participants undergo neuropsychological evaluation at the time of assessment for treatment efficacy (Visits 1 and 2), as well as at the Baseline Visit. The evaluation occurs outside of the scanner and includes the Buschke Selective Reminding Test (Buschke and Fuld, 1974) and the Verbal Paired Associates subtest, the Logical Memory subtest, the Visual Reproduction subtest of the Wechsler Memory Scale-Revised (WMS-R) (Wechsler, 1997), and the Benton Visual Retention Test, as these tasks are particularly sensitive to medial temporal lobe function and early memory problems (Marquis et al., 2002 and Masur et al., 1994). Additionally, subjects are asked to complete tests of more general cognitive function such as tests to assess general mental status, executive function, attention and general naming ability. All neuropsychological tests are administered by a trained research assistant during a 60-minute session. As the three neuropsychological assessments in this study occur within a time period of 8 weeks, different versions of the neuropsychological tests are used to minimize test specific practice effects. Breaks are provided to the subject as needed.

somatostatin in DG hilus = assay: somatostatin immunohistochemistry, SOM-immunoreactive hilar neuron counts after 4-week levetiracetam; assay type: in vivo, rat; details: 10 mg/kg/day, osmotic minipumps, four weeks; AI-LEV vs Y p=0.679, AI-LEV vs AI-VEH p<0.01
Description: Under isoflurane anesthesia, memory-impaired aged rats are implanted subcutaneously in the intrascapular region with osmotic mini-pumps (ALZET,
Durect Corporation, Cupertino, Calif.) with levetiracetam (10 mg/kg/day) or saline vehicle for four weeks prior to perfusion. Young rats, which served as controls, receive either saline vehicle in mini-pumps or no implantation.
At the end of the 4-week treatment period, rats are anesthetized with isoflurane and perfused transcardiacally with 0.1 M phosphate buffer saline, followed by 4% paraformaldehyde in phosphate buffer. Brains are removed and post-fixed in paraformaldehyde overnight. […]
Tissue is labeled with anti-SOM antiserum (Santa Cruz Biotechnology; cat. no. SC7819-P) using an established immunoperoxidase protocol and tissue sections are processed concurrently to minimize inter-replication variability (Haberman et al., 2009). […] The secondary antibody is detected with avidin-biotin complex (ABC Elite; Vector Laboratories Inc., Burlingame, Calif.) and the avidin-biotin complex is visualized with nickel-enhanced diaminobenzadine (Vector Laboratories Inc., Burlingame, Calif.). […]
Interneuron quantification is performed using a Zeiss Axioplan 2 microscope equipped with a motorized stage. […] Neuron counts are analyzed as the total number of hilar interneurons per hippocampal section for each rat.

aMCI subjects [3] = assay: explicit 3-alternative forced choice task (lure-based memory performance); assay type: in vivo, human

concentration at 28 days ([1]; 20 mg/kg daily dose, extrapolated from 10 and 60 mg/kg, read-out: estimated levetiracetam blood level): 7.6 µg/mL
concentration at 28 days ([1]; other: osmotic minipumps, 10 mg/kg/day, 28 days, SEM±0.255, read-out: mean levetiracetam blood plasma level): 3.8 µg/mL
concentration at 28 days ([1]; other: osmotic minipumps, 20 mg/kg daily dose, extrapolated from 10 and 60 mg/kg, read-out: estimated levetiracetam blood level): 7.6 µg/mL
SMILES: CC[C@@H](C(N)=O)N1CCCC1=O [levetiracetam, (2S)-2-(2-oxopyrrolidin-1-yl) butanamide]
performance in Benton Visual Retention Test (aMCI subjects [2]): fails to rescue performance
performance in Buschke Selective Reminding Test—Delayed Recall (aMCI subjects [2]): fails to rescue performance
performance in Verbal Paired Associates Test—Delayed Recall (aMCI subjects [2]): fails to rescue performance
performance in Verbal Paired Associates Test—Recognition (aMCI subjects [2]): fails to rescue performance
levels of somatostatin in DG hilus (SOM-immunoreactive hilar neurons) (somatostatin in DG hilus): restores the levels of somatostatin; also recorded: restores sematostatin in DG hilus
performance in the explicit 3-alternative forced choice task (aMCI subjects [3]; 62.5 mg BID for two weeks vs placebo, p=0.041): further improved performance in cognitive tests; also recorded: improves significantly
performance in the explicit 3-alternative forced choice task (aMCI subjects [3]; 125 mg twice a day for two weeks vs placebo, p=0.039): improves significantly
performance in the explicit 3-alternative forced choice task (aMCI subjects [3]; 250 mg BID for two weeks vs placebo, p=0.2396): does not significantly improve

Reference: patent US10154988B2, “Methods and compositions for treating schizophrenia” (The Johns Hopkins University, priority 2012, dated 2018)
